Assay results as given in PMC3700907 (PLoS ONE, 2013).
“And” between values parts separate entries of the source, which are not always exact repeats. Identical values can stand only once. Like-named read-outs stand apart in the source and are kept apart here.

Experiments:
[1] = target: mPrP(23–230) monomer (Mus musculus, UniProt P04925); conditions: pH 6
[2] = type: physicochemical
[3] = type: physicochemical; conditions: pH 3.7

Sequence of mPrP(23–230) monomer (P04925 23-230 limits assumed): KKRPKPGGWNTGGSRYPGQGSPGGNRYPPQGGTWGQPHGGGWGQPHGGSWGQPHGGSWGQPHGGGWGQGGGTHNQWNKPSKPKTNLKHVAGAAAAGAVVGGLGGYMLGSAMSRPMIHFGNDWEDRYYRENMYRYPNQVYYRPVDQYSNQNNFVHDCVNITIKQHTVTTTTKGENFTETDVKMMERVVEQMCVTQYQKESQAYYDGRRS

Substance	average lag time of amyloid formation of mPrP(23–230) relative to unseeded reaction [1]	cross-seeding effect on mPrP(23–230) monomer [1]	monomer concentration remained in solution after fibrillization ([2]; pH 7.4)	average lag time for amyloidogenesis [3]	monomer concentration remained in solution after fibrillization ([2]; pH 3.7)
Ac-NLKHVAGAAAAGAVVGGLGG-NH2 [mPrP(107–126)]	slightly prolonged	no seeding effect	12.4 µM and 11.1 µM and 6.6 µM		
Ac-YMLGSAMSRPMIHFGND-NH2 [mPrP(127–143)]		induced immediately		hardly detectable	32.6 µM and 35.6 µM and 27.2 µM
